Assay results published in ChEMBL document CHEMBL1132315, “Pharmacophore models of group I and group II metabotropic glutamate receptor agonists. Analysis of conformational, steric, and topological parameters affecting potency and selectivity” (J Med Chem, 1999).

Columns and labels:
[1] = The effective concentration for 50% glutamate response was measured on Group I Metabotropic glutamate receptor; assay type: functional
[2] = The effective concentration for 50% glutamate response was measured on Group II Metabotropic glutamate receptor; assay type: functional
[3] = (§1) Percentage of glutamate maximal response was measured on Group II Metabotropic glutamate receptor; assay type: functional
[4] = as §1; assay type: functional; remark: listed apart in the source
[5] = Percent glutamate response was measured on group 1 Metabotropic Glutamate Receptors

SMILES | EC50 [1] | EC50 [2] | Response [3] | EC50 [4] | Response [5]
N[C@H](C(=O)O)c1cc(O)no1 [IBOTENIC ACID] | 6 µM | 50 µM |  |  | 
NC1(C(=O)O)CC2CC1C2C(=O)O (stereo in doubt; 22) | 232 µM | 38 µM |  |  | 
N[C@@H](Cn1oc(=O)[nH]c1=O)C(=O)O [QUISQUALATE] | 0.9 µM | 100 µM |  |  | 
N[C@@]1(C(=O)O)CC[C@H]2[C@H](C(=O)O)[C@H]21 [EGLUMETAD] | > 1000 µM | 0.032 µM |  |  | 
N[C@]1(C(=O)O)CC[C@H](C(=O)O)C1 | 127 µM | 110 µM |  |  | 
NC1(C(=O)O)CC2CCC1C2C(=O)O (stereo in doubt; 8) |  |  | 50% |  | 
N[C@@]1(C(=O)O)CC[C@@H](C(=O)O)C1 | 9.3 µM | 18 µM |  |  | 
O=C(O)[C@H]1C[C@H](C(=O)O)N1 | 189 µM | > 100 µM |  |  | 
N[C@@H](C(=O)O)[C@H]1CC1C(=O)O (single isomer, unassigned) | 5 µM | 0.3 µM |  |  | 
NC1(C(=O)O)CC2CC1C2C(=O)O (stereo in doubt; 12) | 1.6 µM | 0.33 µM |  |  | 
NC(C(=O)O)C1[C@@H](C(=O)O)[C@@H]1C(=O)O (stereo not given in full) |  |  |  | 0.1 µM | 
N[C@@H](CCC(=O)O)C(=O)O [GLUTAMIC ACID] | 4.9 µM | 0.29 µM |  |  | 
N[C@H](C(=O)O)c1cccc(O)c1 |  |  | < 15% |  | 
N[C@@H](C(=O)O)[C@@H]1CC1C(=O)O (single isomer, unassigned) | 20 µM |  |  |  | 
NC1(C(=O)O)CC2CCC1C2C(=O)O (stereo in doubt; 9) |  |  | 50% |  | 12%
N[C@@]1(C(=O)O)CC[C@H](C(=O)O)C1 | > 300 µM | 13 µM |  |  | 
N[C@H](C(=O)O)c1cc(O)cc(O)c1 | 6.6 µM |  |  |  | 
NC1(C(=O)O)CC2CC1C2C(=O)O (stereo in doubt; 21) | 121 µM | 54 µM |  |  | 
N[C@@]1(C(=O)O)CN[C@@H](C(=O)O)C1 | > 1000 µM | 3.5 µM |  |  | 
NC1(C(=O)O)C2CCC1C(C(=O)O)C2 (stereo not given) |  |  |  | 30 µM | 10%
